Assay results from patent US20230302150A1, “ANTIBODY-TLR AGONIST CONJUGATES, METHODS AND USES THEREOF” (Ambrx, Inc., priority 2020, published 2023).
Like-named read-outs stand apart in the source and are kept apart here.

Biological target: T1, hTLR7 (Homo sapiens, UniProt Q9NYK1)
T1 construct: expressed in transfected cells; host or cells: HEK-Blue hTLR7 reporter cell line
T1 sequence (Q9NYK1 27-1049): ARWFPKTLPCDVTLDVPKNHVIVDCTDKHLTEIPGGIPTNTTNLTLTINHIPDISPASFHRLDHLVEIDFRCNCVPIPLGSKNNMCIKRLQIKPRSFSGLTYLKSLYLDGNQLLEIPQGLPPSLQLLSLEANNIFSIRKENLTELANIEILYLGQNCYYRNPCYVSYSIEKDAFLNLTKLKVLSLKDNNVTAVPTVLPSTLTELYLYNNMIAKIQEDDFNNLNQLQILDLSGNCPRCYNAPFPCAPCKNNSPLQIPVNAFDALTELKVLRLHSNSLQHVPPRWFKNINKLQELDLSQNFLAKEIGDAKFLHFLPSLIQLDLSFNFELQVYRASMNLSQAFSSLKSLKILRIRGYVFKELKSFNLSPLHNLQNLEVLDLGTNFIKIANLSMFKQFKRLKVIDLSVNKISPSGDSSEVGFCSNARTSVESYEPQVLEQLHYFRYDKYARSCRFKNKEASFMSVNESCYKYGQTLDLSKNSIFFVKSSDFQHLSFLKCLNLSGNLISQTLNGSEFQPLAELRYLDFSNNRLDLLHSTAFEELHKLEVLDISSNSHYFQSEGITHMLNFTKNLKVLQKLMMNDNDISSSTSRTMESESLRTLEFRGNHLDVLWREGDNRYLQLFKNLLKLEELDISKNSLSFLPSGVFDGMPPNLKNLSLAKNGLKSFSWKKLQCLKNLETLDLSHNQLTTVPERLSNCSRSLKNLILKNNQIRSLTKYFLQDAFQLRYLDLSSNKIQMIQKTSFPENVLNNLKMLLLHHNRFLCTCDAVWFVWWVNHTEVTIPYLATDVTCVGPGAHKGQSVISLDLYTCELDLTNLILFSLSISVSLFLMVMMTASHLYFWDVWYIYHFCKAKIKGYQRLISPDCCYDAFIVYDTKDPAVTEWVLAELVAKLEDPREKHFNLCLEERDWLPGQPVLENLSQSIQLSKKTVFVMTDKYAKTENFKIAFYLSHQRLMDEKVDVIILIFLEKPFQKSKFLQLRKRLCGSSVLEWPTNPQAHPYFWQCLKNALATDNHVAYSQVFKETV
Experiment: HEK-Blue hTLR7 reporter assay (NF-kB-induced SEAP, Quanti-Blue)
Assay type: cell-based
Description: HEK-Blue™ hTLR7 cells were incubated in HEK-Blue™ Detection medium and stimulated with increasing concentrations of TLR7 or TLR8 or TLR7/8 agonists. […] The EC50 was determined from dose-response curve using Prism Software.

[1] = Table 19, TLR7, drug-linkers with PEG shielding, read-out: EC50
[2] = Table 11, TLR7 activities, read-out: EC50

CCCCOc1nc(N)c2[nH]c(=O)n(Cc3ccc(CN4CCC(CCNC(=O)CCN5C(=O)C=CC5=O)CC4)cc3)c2n1 [AXC-955, N-(2-(1-(4-((6-amino-2-butoxy-8-oxo-7,8-dihydro-9H-purin-9-yl)methyl)benzyl)piperidin-4-yl)ethyl)-3-(2,5-dioxo-2,5-dihydro-1H-pyrrol-1-yl)propanamide]
EC50 [1]: 173 nM

CCCCOc1nc(N)c2[nH]c(=O)n(Cc3ccc(CN4CCC(CCNC(=O)[C@H](CCCCNC(=O)CON)NC(=O)CCCC(=O)NCCOCCOCCOCCOCCC(=O)NC(COCCC(=O)NCCOCCOCCOCCOCCOCCOCCOCCOCCOCCOCCOCCOC)(COCCC(=O)NCCOCCOCCOCCOCCOCCOCCOCCOCCOCCOCCOCCOC)COCCC(=O)NCCOCCOCCOCCOCCOCCOCCOCCOCCOCCOCCOCCOC)CC4)cc3)c2n1 [AXC-946, (S)—N-(2-(1-(4-((6-amino-2-butoxy-8-oxo-7,8-dihydro-9H-purin-9-yl)methyl)benzyl)piperidin-4-yl)ethyl)-6-(2-(aminooxy)acetamido)-2-dPEG4-(m-dPEG12)3-amidohexanamide]
EC50 [1]: 1410 nM

CCCCc1nc2c(N)nc3ccccc3c2n1CCCCNC(=O)c1ccc(N(C)C)cc1 [AXC-740, N-(4-(4-amino-2-butyl-1H-imidazo[4,5-c]quinolin-1-yl)butyl)-4-(dimethylamino)benzamide]
EC50 (Table 10, read-out: TLR7 EC50): 116 nM

CCCCOc1nc(N)c2[nH]c(=O)n(Cc3ccc(CN4CCC(CCNC(=O)[C@H](C)NC(=O)CON)CC4)cc3)c2n1 [AXC-896, (S)—N-(2-(1-(4-((6-amino-2-butoxy-8-oxo-7H-purin-9(8H)-yl)methyl)benzyl)piperidin-4-yl)ethyl)-2-(2-(aminooxy)acetamido)propanamide]
EC50 (Table 13, TLR7, read-out: EC50): 325 nM

CCc1nc2c(N)nc3ccccc3c2n1CCCCNC(=O)c1ccc(N(C)C)cc1 [AXC-738, N-(4-(4-amino-2-ethyl-1H-imidazo[4,5-c]quinolin-1-yl)butyl)-4-(dimethylamino)benzamide]
EC50 (Table 10, read-out: TLR7 EC50): 11.1 nM

CCCCCNc1nc(N)nc2ccn(Cc3cc(CN4CCN(CCCNC(=O)CON)CC4)ccc3OC)c12 [AXC-860, reference compound]
EC50 (Table 14, read-out: TLR7 EC50): 120 nM

CCCCc1nc2c(N)nc3ccccc3c2n1CCCCNC(=O)c1cc(F)c(NC(=O)[C@H](C)NC(=O)CON)c(F)c1 [AXC-800, (S)—N-(4-(4-amino-2-butyl-1H-imidazo[4,5-c]quinolin-1-yl)butyl)-4-(2-(2-(aminooxy)acetamido)propanamido)-3,5-difluorobenzamide]
EC50 (Table 10, read-out: TLR7 EC50): > 5000 nM

CCCCc1nc2c(N)nc3ccccc3c2n1CCCCNC(=O)c1ccc(N)c(F)c1 [AXC-778, 4-amino-N-(4-(4-amino-2-butyl-1H-imidazo[4,5-c]quinolin-1-yl)butyl)-3-fluorobenzamide]
EC50 (Table 10, read-out: TLR7 EC50): 83.3 nM

CCCCOc1nc(N)c2[nH]c(=O)n(Cc3ccc(CN4CCC(CCNC(=O)[C@@H](N)CCCNC(=N)N)CC4)cc3)c2n1 [AXC-892, (S)-2-amino-N-(2-(1-(4-((6-amino-2-butoxy-8-oxo-7H-purin-9(8H)-yl)methyl)benzyl)piperidin-4-yl)ethyl)-5-guanidinopentanamide]
EC50 (Table 13, TLR7, read-out: EC50): 73 nM

CCCCOc1nc(N)c2[nH]c(=O)n(Cc3ccc(CN4CCC(CCNC(=O)CCC(N)CCC(=O)NCCC5CCN(Cc6ccc(Cn7c(=O)[nH]c8c(N)nc(OCCCC)nc87)cc6)CC5)CC4)cc3)c2n1 [AXC-888, 4-amino-N1,N7-bis(2-(1-(4-((6-amino-2-butoxy-8-oxo-7H-purin-9(8H)-yl)methyl)benzyl)piperidin-4-yl)ethyl)heptanediamide]
EC50 [2]: 468 nM

CCCCOc1nc(N)c2[nH]c(=O)n(Cc3ccc(CN4CCC(CCNC(C)=O)CC4)cc3)c2n1 [AXC-886, N-(2-(1-(4-((6-amino-2-butoxy-8-oxo-7H-purin-9(8H)-yl)methyl)benzyl)piperidin-4-yl)ethyl)acetamide]
EC50 [2]: 16.7 nM

CCCCOc1nc(N)c2[nH]c(=O)n(Cc3ccc(CN4CCC(C5CCN(C(=O)CCOCCON)CC5)CC4)cc3)c2n1 [AXC-909, 6-amino-9-(4-((1′-(3-(2-(aminooxy)ethoxy)propanoyl)-4,4′-bipiperidin-1-yl)methyl)benzyl)-2-butoxy-7H-purin-8(9H)-one]
EC50 (Table 14, read-out: TLR7 EC50): 71.9 nM

CCCCc1nc2c(N)nc3ccccc3c2n1CCCCNC(=O)c1cc(F)c(N)c(F)c1 [AXC-779, 4-amino-N-(4-(4-amino-2-butyl-1H-imidazo[4,5-c]quinolin-1-yl)butyl)-3,5-difluorobenzamide]
EC50 (Table 10, read-out: TLR7 EC50): 242 nM

CCCCOc1nc(N)c2[nH]c(=O)n(Cc3ccc(CN4CCC(CCNC(=O)[C@H](CCCCNC(=O)CON)NC(=O)CCOCCOCCOCCOCCOCCOCCOCCOCCOCCOCCOCCOCCOCCOCCOCCOCCOCCOCCOCCOCCOCCOCCOCCOCCOCCOCCOCCOCCOCCOCCOCCOCCOCCOCCOCCOCCOC)CC4)cc3)c2n1 [AXC-941, (S)—N-(2-(1-(4-((6-amino-2-butoxy-8-oxo-7,8-dihydro-9H-purin-9-yl)methyl)benzyl)piperidin-4-yl)ethyl)-6-(2-(aminooxy)acetamido)-2-PEG37-amidohexanamide]
EC50 [1]: 699 nM

CCCCOc1nc(NC(C)=O)c2[nH]c(=O)n(Cc3ccc(CN4CCC(CCON)CC4)cc3)c2n1 [AXC-978, N-(9-(4-((4-(2-(aminooxy)ethyl)piperidin-1-yl)methyl)benzyl)-2-butoxy-8-oxo-8,9-dihydro-7H-purin-6-yl)acetamide]
EC50 [1]: 28.9 nM

CCCCOc1nc(N)c2[nH]c(=O)n(Cc3ccc(CN4CCC(CCNC(=O)[C@H](CCCCNC(=O)CON)NC(=O)CCCC(=O)NCCOCCOCCOCCOCCOCCOCCOCCOCCOCCOCCOCCOCCOCCOCCOCCOCCOCCOCCOCCOCCOCCOCCOCCOCCOCCOCCOCCOCCOCCOCCOCCOCCOCCOCCOCCOCCOCCOCCOCCOCCOCCOCCOCCOCCOCCOCCOCCOC)CC4)cc3)c2n1 [AXC-936, (S)-N1-(1-((2-(1-(4-((6-amino-2-butoxy-8-oxo-7,8-dihydro-9H-purin-9-yl)methyl)benzyl)piperidin-4-yl)ethyl)amino)-6-(2-(aminooxy)acetamido)-1-oxohexan-2-yl)-N5-(PEG48)-glutaramide]
EC50 [1]: 764 nM

CCCCOc1nc(N)c2[nH]c(=O)n(Cc3ccc(CN4CCC(CCNC(=O)[C@H](C)N)CC4)cc3)c2n1 [AXC-891, (S)-2-amino-N-(2-(1-(4-((6-amino-2-butoxy-8-oxo-7H-purin-9(8H)-yl)methyl)benzyl)piperidin-4-yl)ethyl)propanamide]
EC50 (Table 13, TLR7, read-out: EC50): 47 nM

CCCCc1nc2c(N)nc3ccccc3c2n1CCCCNC(=O)CON [AXC-910, reference compound]
EC50 (Table 14, read-out: TLR7 EC50): 2590 nM

CCCCOc1nc(NC(C)=O)c2[nH]c(=O)n(Cc3ccc(CN4CCC(CCN)CC4)cc3)c2n1 [AXC-964, N-(9-(4-((4-(2-aminoethyl)piperidin-1-yl)methyl)benzyl)-2-butoxy-8-oxo-8,9-dihydro-7H-purin-6-yl)acetamide]
EC50 [1]: 10.3 nM

CCCCOc1nc(N)c2[nH]c(=O)n(Cc3ccc(CN4CCC(CCNC(=O)[C@H](Cc5ccc(O[C@@H]6O[C@H](CO)[C@@H](O)[C@H](O)[C@H]6O)cc5)NC(=O)CON)CC4)cc3)c2n1 [AXC-956, (S)—N-(2-(1-(4-((6-amino-2-butoxy-8-oxo-7,8-dihydro-9H-purin-9-yl)methyl)benzyl)piperidin-4-yl)ethyl)-2-(2-(aminooxy)acetamido)-3-(4-(((2S,3R,4S,5S,6R)-3,4,5-trihydroxy-6-(hydroxymethyl)tetrahydro-2H-pyran-2-yl)oxy)phenyl)propanamide]
EC50 [1]: 158 nM

CCCCCC(=O)Nc1nc(OCCCC)nc2c1[nH]c(=O)n2Cc1ccc(CN2CCC(CCN)CC2)cc1 [AXC-963, N-(9-(4-((4-(2-aminoethyl)piperidin-1-yl)methyl)benzyl)-2-butoxy-8-oxo-8,9-dihydro-7H-purin-6-yl)hexanamide]
EC50 [1]: 19.4 nM

CCCCOc1nc(N)c2[nH]c(=O)n(Cc3ccc(CN4CCC(CCNC(=O)[C@H](CCCCNC(=O)CCOCCOCCOCCOCCOCCOCCOCCOCCOCCOCCOCCOCCOCCOCCOCCOCCOCCOCCOCCOCCOCCOCCOCCOC)NC(=O)CON)CC4)cc3)c2n1 [AXC-949, (S)—N-(2-(1-(4-((6-amino-2-butoxy-8-oxo-7,8-dihydro-9H-purin-9-yl)methyl)benzyl)piperidin-4-yl)ethyl)-2-(2-(aminooxy)acetamido)-6-PEG24-amidohexanamide]
EC50 [1]: 760 nM

CCCCOc1nc(N)c2[nH]c(=O)n(Cc3ccc(CN4CCC(CCNC(=O)[C@H](Cc5ccc(O)cc5)NC(=O)CON)CC4)cc3)c2n1 [AXC-953, (S)—N-(2-(1-(4-((6-amino-2-butoxy-8-oxo-7,8-dihydro-9H-purin-9-yl)methyl)benzyl)piperidin-4-yl)ethyl)-2-(2-(aminooxy)acetamido)-3-(4-hydroxyphenyl)propanamide]
EC50 [1]: 201 nM
